One experiment concerns the target T1, 5-HT1A receptor (Homo sapiens, UniProt P08908).
T1 sequence (P08908 1-422): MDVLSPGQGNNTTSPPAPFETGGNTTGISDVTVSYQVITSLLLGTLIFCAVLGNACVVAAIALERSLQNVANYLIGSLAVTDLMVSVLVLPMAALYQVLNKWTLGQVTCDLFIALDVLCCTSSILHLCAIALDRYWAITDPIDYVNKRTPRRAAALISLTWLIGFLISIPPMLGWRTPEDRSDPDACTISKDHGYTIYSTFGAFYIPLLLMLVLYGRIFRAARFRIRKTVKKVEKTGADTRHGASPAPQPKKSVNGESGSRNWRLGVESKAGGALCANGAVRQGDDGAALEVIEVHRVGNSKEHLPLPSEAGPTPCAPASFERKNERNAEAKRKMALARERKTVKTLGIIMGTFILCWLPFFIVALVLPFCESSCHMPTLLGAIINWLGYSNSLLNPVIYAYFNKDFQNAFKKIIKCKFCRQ
The note with it: background statement, qualitative; cited from earlier work.

Experiment [1] relates to Sexual Disorders and/or Dysfunctions. As to the kind of experiment: studies of female patients suffering from Sexual Disorders. Type of experiment: in vivo. The note with it: free base or acceptable derivative, qualitative.
A further experiment concerns 5-HT2-receptor. To be noted: background statement, qualitative; cited from earlier work.

These results are taken from patent US20090318469A1, “Use of Flibanserin for the Treatment of Sexual Disorders in Females” (Boehringer Ingelheim International GmbH, priority 2006, published 2009).

With `O=c1[nH]c2ccccc2n1CCN1CCN(c2cccc(C(F)(F)F)c2)CC1` [Flibanserin, 1-[2-(4-(3-trifluoromethyl-phenyl)piperazin-1-yl)ethyl]-2,3-dihydro-1H-benzimidazol-2-one], on 5-HT1A receptor, the “affinity for the 5-HT1A receptor” value is “shows affinity”. Further, the “effect on Sexual Disorders and/or Dysfunctions” value in experiment [1] is reported as “positive effect”. The “affinity for the 5-HT2-receptor” value in the experiment on 5-HT2-receptor was “shows affinity”.
